This is an account of results in patent US20130035515A1, “LIGNOCELLULOSIC HYDROLYSATES AS FEEDSTOCKS FOR ISOBUTANOL FERMENTATION” (priority 2011, published 2013).

Where only a bound is given, the exact number is not on record here.

In assay [1] the test system is PNY1504. The assay is described as follows: Fermentation of glucose to isobutanol by PNY1504 in defined medium with or without antimycin A. Particulars: glucose 35 g/L. The assay is classed as cell-based, Saccharomyces cerevisiae. How it is done:
(§1) Strain PNY1504 was pre-cultured in the defined medium SC-GE as described above, except that the medium was buffered to pH 6. Production cultures used the same SC medium, except either glucose or xylose was added to a final concentration of 35 g/L, and penicillin G (Sigma P3032) was added at 25 μg/ml.
(§2) Xylulose can be taken up by yeast and metabolized via the pentose phosphate pathway. […] Souto-Maior A M, et al., J Biotechnol. 143:119-23 (2009). Thus, in order to increase flux towards fermentative products, cultures were treated with the respiratory inhibitor antimycin A (1 μM; Sigma A8674).

For assay [2], the system named is PNY1504. The assay is described as follows: Fermentation of xylose to isobutanol by PNY1504 in defined medium with xylose isomerase, with or without antimycin A. The assay is classed as cell-based, Saccharomyces cerevisiae. How it is done:
as §1
Unless it is genetically engineered to do so, S. cerevisiae is unable to ferment xylose, but it is able to ferment xylulose. In order to test whether xylose is available for fermentation to isobutanol, it was converted to xylulose in situ by xylose isomerase (10 g/L; Sigma G4166) essentially as described in Lastick S. M., et al., Applied Microbiology and Biotechnology 30:574-579 (1989), Wang P. Y., et al., Biotechnology Letters 2:273-278 (1980) and Chandrakant P & Bisaria V S, Appl Microbiol Biotechnol 53:301-309 (2000).
as §2

[3] abbreviates: antimycin A-treated culture (1 μM).

Regarding antimycin A, the “Time in which glucose (hexose) was consumed” value in assay [1] (antimycin A 1 μM) is not above 24 h. In assay [1] (setting [3]), the Isobutanol titer is approximately 3.3 g/L and the Isobutanol yield entry is “approximately 0.08 g·g^−1”. Besides, in assay [2] (antimycin A 1 μM), the “Effect on biomass accumulation” value is on record as “reduce biomass accumulation slightly” and the “Effect on xylose consumption profile” value is “not significantly affected”. Moreover, in assay [2] (antimycin A 1 μM, at 78 hours), the Isobutanol production is 0.5 g/L. For the same substance, in assay [2] (in the presence of antimycin A), the Isobutanol yield came to 0.04 g/g.
